{"source": "patent US20040251215A1", "about": "“Method for killing organicsms in the course of conveying ballast water in ships and apparatus thereof” (priority 2003, published 2004)", "key": {"Bacteria": {"system": "Bacteria", "test": "Test of elimination of bacteria in seawater (ballast water) by hydroxyl radical solution", "assay_type": "cell-based", "settings": "OH concentration 0.63 mg/L", "excerpt": "(§1) Free radical generator of the present invention was made of anode electrode 22, cathode electrode 21, dielectric substance layer 24 and septum 23. Strong electric field of 250-600 Td was formed between the anode electrode and cathode electrode. […] The undissolved free radicals were removed by residual free radical treater 13. High frequency electric source made from transformer 5, invertor 6 and controller 7 was used to supply electric source to free radical generator 3. Free radical concentration measuring apparatus 4 was used to measure the concentration of free radical produced while the hydroxyl radical solution concentration analyzer 14 was used to measure the concentration of hydroxyl radical solution. Untreated ballast water was suctioned by pump 19 into conveying pipe and filtered by filter 16 (FIG. 2). A part of them was taken out and was processed by free radical generating unit 15 into hydroxyl radical solution which was then mixed in liquid-liquid mixer 20 with ballast water conveyed in pipe and flowed through flow meter 17 and valve 18. The effectiveness of the elimination of single cell alga, protozoans and bacteria was illustrated in Table 1."}, "single cell alga": {"system": "single cell alga", "test": "Test of elimination of single cell alga in seawater (ballast water) by hydroxyl radical solution", "assay_type": "cell-based", "settings": "OH concentration 0.63 mg/L", "excerpt": "as §1"}, "Protozoan": {"system": "Protozoan", "test": "Test of elimination of protozoan in seawater (ballast water) by hydroxyl radical solution", "assay_type": "cell-based", "settings": "OH concentration 0.63 mg/L", "excerpt": "as §1"}, "[1]": {"system": "bacteria, single cell alga, protozoan, spore and vibrio", "test": "Time and concentration needed to kill microorganisms in ballast water by hydroxyl radical", "assay_type": "cell-based", "excerpt": "as §1\nThe time necessary for elimination of single cell alga, protozoan, bacteria and the like was extremely short. […]"}, "[2]": {"test": "Decomposition of residual hydroxyl radicals", "assay_type": "physicochemical", "settings": "treated ballast water", "protocol": "The residual hydroxyl radicals were decomposed after 20 min into H2O, O2 and the like and there was no any residual chemical reagent left. Therefore the method for treating ballast water by using hydroxyl radicals solution is a green effective method."}}}
{"substance": "hydroxyl radical [OH]", "values": [{"measurement": "Lethality", "setting": "Bacteria", "value": 100, "unit": "%"}, {"measurement": "Microorganism concentration", "setting": "Bacteria; untreated 1.9 × 10^5", "value": "not detectable"}, {"measurement": "Lethality", "setting": "single cell alga", "value": 100, "unit": "%"}, {"measurement": "Microorganism concentration", "setting": "single cell alga; untreated 6.0 × 10^4", "value": "not detectable"}, {"measurement": "Lethality", "setting": "Protozoan", "value": 100, "unit": "%"}, {"measurement": "Microorganism concentration", "setting": "Protozoan; untreated 4.4 × 10^4", "value": "not detectable"}, {"measurement": "time needed for elimination of microorganism", "setting": "[1]; from curve of time against lethality, FIG. 4", "value": "about 4 s"}, {"measurement": "concentration at which killing is feasible", "setting": "[1]; single cell alga, protozoan, spore, bacteria, vibrio in ballast water", "value": "0.6 to 0.7", "unit": "mg/L"}, {"measurement": "time after which residual hydroxyl radicals were decomposed into H2O, O2", "setting": "[2]", "value": 20, "unit": "min"}]}
